# Assay results reported in US20100285959A1, “HERBICIDAL MIXTURES” (priority 2006, published 2010).
# Tests used:
# [1] = tested on: common lambsquarters (CHEAL); assay: Test 4 field trial, postemergence; type: in vivo, Chenopodium album; conditions: 14 DAA
# [2] = tested on: Russian thistle (SASKR); assay: Test 4 field trial, postemergence; type: in vivo, Salsola kali; set-up: scale not given here
# Experimental: A field trial was conducted to evaluate the effects of mixtures of Compound 2 with commercial herbicides on spring wheat (TRZAS, Triticum aestivum L.) and several weed species. Wheat seeds (cv. ‘AC Intrepid’) were planted in late spring season, 3.8 cm deep in a loam soil having 2.7% organic matter and a pH of 7. Plots were 6 m long by 2.5 m wide. The field was managed using no-till practices. The plots were arranged in a randomized complete block design with each treatment being replicated four times. Treatments were applied postemergence 25 days after planting using a backpack sprayer delivering a spray volume of 55 L/ha using a pressure of 276 kPa. […] Compound 2 and clodinafop treatments, alone and in combination, also included a surfactant. Weed species present in the experimental plots in sufficient quantity to be evaluated included wild oat (AVEFA, Avena fatua L.), common lambsquarters (CHEAL, Chenopodium album L.), kochia (KCHSC, Kochia scoparia (L.) Schrad.), wild buckwheat (POLCO, Polygonum convolvulus L.), Russian thistle (SASKR, Salsola kali L. ssp. ruthenica (Iljin) Soo), and field pennycress (THLAR, Thlaspi arvense L.). […] Common lambsquarters was evaluated only at 14 days after application. […] Results are the means of the four replicates.
# [3] = tested on: mixed hardwoods (MXDSP); assay: Test 13 field trial, postemergence, brush weeds; type: in vivo, Nyssa sylvatica, Acer rubrum, Liquidambar styraciflua; conditions: 56 DAA; g a.i./ha: Cpd 2 250; Fosamine-ammonium 6700
# Description: Plots were established in non-crop land and were 6.1 m long by 3.0 m wide. […] Treatments were applied postemergence to the brush weeds using a backpack sprayer delivering a spray volume of 468 L/ha using a pressure of 241 kPa. […] All treatments also included a surfactant. […] Results are the means of the three replicates.
# [4] = tested on: galium (GALAP); assay: Test 24 growth chamber, postemergence; type: in vivo, Galium aparine; conditions: 17 DAA
# Experimental: (§1) Plants were treated postemergence at the 2-4 leaf growth stage, and each treatment was replicated three times. […] Plants were watered as needed. […] Results for barley and wheat are the means across varieties of the three replicates, and results for the weeds are the means of the three replicates.
# [5] = tested on: Russian thistle (SASKR); assay: Test 24 growth chamber, postemergence; type: in vivo, Salsola kali; conditions: 17 DAA
# Experimental: as §1
# [6] = tested on: velvetleaf (ABUTH); assay: Test 25 field trial, postemergence, growth as percent of control; type: in vivo, Abutilon theophrasti
# Description: (§2) Corn seeds (hybrid ‘Pioneer 31G96 RR’) were planted in mid spring season, 3.8 cm deep in a clay loam soil having 2% organic matter and a pH of 6.6. Plots were 6.1 m long by 3.0 m wide with rows spaced 76 cm apart. Seeds were spaced 15 cm apart within the rows. The field was managed using conventional tillage practices. […] Giant ragweed and Pennsylvania smartweed could only be evaluated 14 days after application. […] Results are the means of the three replicates. This growth inhibition data was converted to results in the form of “plant growth as a percent of control plant growth” using the calculation “100 minus growth inhibition”.
# (§3) When this form of Colby's Equation is used, if the observed effects on weeds are less than the expected values, the mixture is synergistic.
# [7] = tested on: common lambsquarters (CHEAL); assay: as above; type: in vivo, Chenopodium album
# Description: as §2, §3
# [8] = tested on: velvetleaf (ABUTH); assay: Test 26 field trial, postemergence; type: in vivo, Abutilon theophrasti
# Description: (§4) Corn seeds (hybrid ‘Pioneer 31G96’) were planted in mid spring season, 3.8 cm deep in a silt loam soil having 2% organic matter and a pH of 6.6. Plots were 6.1 m long by 3.0 m wide with rows spaced 76 cm apart. Seeds were spaced 15 cm apart within the rows. The field was managed using conventional tillage practices. […] All treatments also included a surfactant. […] Some of the weed species could not be evaluated at every timing. […] Results are the means of the three replicates.
# [9] = tested on: jimsonweed (DATST); assay: Test 26 field trial, postemergence; type: in vivo, Datura stramonium; conditions: 28 DAA
# Description: as §4
# [10] = tested on: Pennsylvania smartweed (POLPY); assay: Test 26 field trial, postemergence; type: in vivo, Polygonum pensylvanicum
# Description: as §4
# [11] = tested on: velvetleaf (ABUTH); assay: Test 15 greenhouse, postemergence; conditions: 12 DAA
structure (smiles),measurement,setting,value
"COC(=O)c1nc(C2CC2)nc(N)c1Cl [Compound 2, methyl 6-amino-5-chloro-2-cyclopropyl-4-pyrimidinecarboxylate]",CHEAL Obs,[1]; Cpd 2 30 g a.i./ha alone or with clodinafop 56 or fenoxaprop 90,83
same,CHEAL Obs,[1]; Cpd 2 60 g a.i./ha alone or with clodinafop 56 or fenoxaprop 90,92
same,SASKR Obs,"[2]; 14 DAA, Cpd 2 30 g a.i./ha alone or with clodinafop 56 or fenoxaprop 90",88
same,SASKR Obs,"[2]; 14 DAA, Cpd 2 60 g a.i./ha alone or with clodinafop 56 or fenoxaprop 90",91
same,SASKR Obs,"[2]; 35 DAA, Cpd 2 30 g a.i./ha alone or with clodinafop 56 or fenoxaprop 90",99
same,SASKR Obs,"[2]; 35 DAA, Cpd 2 60 g a.i./ha alone",95
same,MXDSP Obs,[3],45
same,GALAP Obs (scale 0 to 100),[4]; Cpd 2 4 g a.i./ha,73
same,GALAP Obs (scale 0 to 100),[4]; Cpd 2 8 g a.i./ha,75
same,GALAP Obs (scale 0 to 100),[4]; Cpd 2 16 g a.i./ha,87
same,SASKR Obs (scale 0 to 100),[5]; Cpd 2 4 g a.i./ha,63
same,SASKR Obs (scale 0 to 100),[5]; Cpd 2 8 g a.i./ha,75
same,SASKR Obs (scale 0 to 100),[5]; Cpd 2 16 g a.i./ha,75
same,ABUTH Obs (percent of control),"[6]; Cpd 2 15 g a.i./ha, 14 DAA",70%
same,ABUTH Obs (percent of control),"[6]; Cpd 2 15 g a.i./ha, 28 DAA",72%
same,ABUTH Obs (percent of control),"[6]; Cpd 2 15 g a.i./ha, 56 DAA",62%
same,ABUTH Obs (percent of control),"[6]; Cpd 2 30 g a.i./ha, 14 DAA",45%
same,ABUTH Obs (percent of control),"[6]; Cpd 2 30 g a.i./ha, 28 DAA",53%
same,ABUTH Obs (percent of control),"[6]; Cpd 2 30 g a.i./ha, 56 DAA",28%
same,ABUTH Obs (percent of control),"[6]; Cpd 2 45 g a.i./ha, 14 DAA",37%
same,ABUTH Obs (percent of control),"[6]; Cpd 2 45 g a.i./ha, 28 DAA",40%
same,ABUTH Obs (percent of control),"[6]; Cpd 2 45 g a.i./ha, 56 DAA",20%
same,CHEAL Obs (percent of control),"[7]; Cpd 2 15 g a.i./ha, 14 DAA",15%
same,CHEAL Obs (percent of control),"[7]; Cpd 2 15 g a.i./ha, 28 DAA",2%
same,CHEAL Obs (percent of control),"[7]; Cpd 2 15 g a.i./ha, 56 DAA",0%
same,CHEAL Obs (percent of control),"[7]; Cpd 2 30 g a.i./ha, 14 DAA",20%
same,CHEAL Obs (percent of control),"[7]; Cpd 2 30 g a.i./ha, 28 DAA",1%
same,CHEAL Obs (percent of control),"[7]; Cpd 2 30 g a.i./ha, 56 DAA",0%
same,CHEAL Obs (percent of control),"[7]; Cpd 2 45 g a.i./ha, 14 DAA",7%
same,CHEAL Obs (percent of control),"[7]; Cpd 2 45 g a.i./ha, 28 DAA",0%
same,CHEAL Obs (percent of control),"[7]; Cpd 2 45 g a.i./ha, 56 DAA",0%
same,ABUTH Obs,"[8]; 14 DAA, 30 g a.i./ha",86
same,ABUTH Obs,"[8]; 14 DAA, 45 g a.i./ha",64
same,ABUTH Obs,"[8]; 14 DAA, 60 g a.i./ha",95
same,ABUTH Obs,"[8]; 28 DAA, 30 g a.i./ha",80
same,ABUTH Obs,"[8]; 28 DAA, 45 g a.i./ha",59
same,ABUTH Obs,"[8]; 28 DAA, 60 g a.i./ha",90
same,ABUTH Obs,"[8]; 56 DAA, 30 g a.i./ha",40
same,ABUTH Obs,"[8]; 56 DAA, 45 g a.i./ha",57
same,ABUTH Obs,"[8]; 56 DAA, 60 g a.i./ha",63
same,DATST Obs,[9]; 30 g a.i./ha,100
same,DATST Obs,[9]; 45 g a.i./ha,100
same,DATST Obs,[9]; 60 g a.i./ha,100
same,POLPY Obs,"[10]; 14 DAA, 60 g a.i./ha",100
same,POLPY Obs,"[10]; 28 DAA, 30 g a.i./ha",20
same,POLPY Obs,"[10]; 28 DAA, 45 g a.i./ha",62
same,POLPY Obs,"[10]; 28 DAA, 60 g a.i./ha",75
same,"Obs response, scale 0 to 100",[11]; 15 g a.i./ha,31
same,"Obs response, scale 0 to 100",[11]; 30 g a.i./ha,38
same,"Obs response, scale 0 to 100",[11]; 45 g a.i./ha,61
